# Data from patent publication US20170071991A1, “Oncolytic Virus and Aurora Kinase Inhibitor for the Treatment of Cancer” (priority 2014, published 2017).
# “Also recorded” adds a separate entry of the source.
# Tests used:
# [1] = pro-drug; cited from earlier work
# [2] = human plasma; cited from earlier work
# [3] = system: human acute myelogenous leukemia (HL60) nude mice xenografts; conditions: cited from earlier work
# [4] = system: human colon cancer (HCT116) nude rat xenograft; conditions: HCT116 nude rat xenograft model; cited from earlier work
# S462TY flank xenografts = assay: S462TY nude mouse flank xenograft, single HSV1716 dose plus MLN8237 20 mg/kg twice daily; type: in vivo, nude mice
# Experimental: Single intratumoral (ITu) injections of 1.0×10^7 pfu HSV1716 or PBS or single intravenous (IV) injections of 9.0×10^7 pfu HSV1716 or PBS were administered on day 7 and tumor growth and survival were monitored.
# S462TY xenografts = assay: S462TY nude mouse xenograft, multiple cycles of lower dose MLN8237 plus HSV1716; type: in vivo, nude mice; conditions: multiple weekly ITu HSV1716 1×10^7 pfu and/or MLN8237 10 mg/kg once daily 5-day cycles
# Description: The schema used for each of the 4 groups is shown in FIG. 8 and tumor growth and survival were monitored throughout the experiment.
# [5] = system: SK-N-AS flank xenografts (neuroblastoma); assay: SK-N-AS nude mouse flank xenograft model; type: in vivo, nude mice
# Description: SK-N-AS cells were derived from a bone marrow metastasis […] of a child with poorly differentiated embryonal neuroblastoma and the cell line readily formed flank xenografts in nude mice. […] The schema used for each of the 4 groups is shown in FIG. 13 and tumor growth and survival were monitored throughout the experiment.
# [6] = system: HSV1716 titre in S462TY xenografts; assay: HSV1716 titration of S462TY xenograft tumours after ITu injection; type: in vivo, mice
# Description: MLN8237-treated or control, untreated mice with S462TY xenografts received ITu HSV1716 and tumours, removed at 2 and 48 hrs after virus administration, were titrated (FIG. 18).
# [7] = system: HSV1716 uptake by S462TY cells; assay: Quantitative PCR for HSV1716 genomes in S462TY cells in vitro; type: cell-based; conditions: 30 min post infection, acid wash
# Experimental: S462TY cells were infected with HSV1716 and an acid wash after 30 mins was used to remove residual free virus which had not penetrated intracellularly.
# [8] = system: multiple tumor cell lines; conditions: values as low as; read-out: GI50, growth of multiple tumor cell lines; cited from earlier work
# [9] = system: receptors and ion channels; conditions: cited from earlier work
# [10] = cited from earlier work
# [11] = system: senescence-associated beta-galactosidase in S462TY xenografts; assay: Senescence detection with X-gal (SA-β-gal) in S462TY xenografts
# [12] = S462TY flank xenografts, best response for at least 21 days, last response day 53, route as in label
# [13] = S462TY flank xenografts, day 53, route as in label
structure (smiles),measurement,setting,value
CCN(CCCOc1ccc2c(Nc3cc(CC(=O)Nc4cccc(F)c4)n[nH]3)ncnc2c1)CCOP(=O)(O)O [AZD1152],solubility,[1],highly soluble
same,cleavage of pro-drug to active drug substance AZD1152 hydroxy-QPA,[2],cleaved completely
Cc1cc(Nc2cc(N3CCN(C)CC3)nc(Sc3ccc(NC(=O)C4CC4)cc3)n2)n[nH]1 [MK0457],reduction in tumor volume when compared with controls,[3],98%
same,"tumor regression, rats treated",[4],four of the seven rats
COc1cc(Nc2ncc3c(n2)-c2ccc(Cl)cc2C(c2c(F)cccc2OC)=NC3)ccc1C(=O)O [MLN8237],tumor growth of S462TY xenografts (FIG. 5a),"S462TY flank xenografts; HSV1716 single ITu 1.0×10^7 pfu day 7 and/or MLN8237 20 mg/kg oral twice daily, 42 days",initially effective at preventing growth of the xenografts
same,survival compared to vehicle/PBS-treated controls (FIG. 6),S462TY flank xenografts; HSV1716 single ITu 1×10^7 pfu day 7 and/or MLN8237 20 mg/kg twice daily,improved survival
same,"PR-->PD, evaluable mice",S462TY flank xenografts; [12],0
same,"SD-->PD, evaluable mice",S462TY flank xenografts; [12],6
same,"PD (Progressive Disease), evaluable mice","S462TY flank xenografts; S462TY flank xenografts, day 53 (11 days after last treatment), MLN8237 20 mg/kg oral twice daily 5 d/week 42 days, HSV1716 single ITu 1.0×10^7 or IV 9.0×10^7 pfu day 7, route as in label",4
same,"CR (Complete Response), evaluable mice",S462TY flank xenografts; [13],0
same,"PR (Partial Response), evaluable mice",S462TY flank xenografts; [13],0
same,day by which most of the mice had been sacrificed,"S462TY flank xenografts; single agents: IV HSV1716, MLN8237 twice daily doses",≤ 60 days
same,"tumor growth of S462TY xenografts (FIG. 9, 10)",S462TY xenografts,reduced the growth
same,"tumor growth, comparison between the four groups on day 21 (FIG. 16)",[5]; day 21,highly significant reduction in tumor growth
same,mice still alive on day 25,"[5]; day 25, single agents",approximately 50%
same,tumor growth of SK-N-AS xenografts (FIG. 14),[5]; five weekly ITu HSV1716 1×10^7 pfu and/or MLN8237 10 mg/kg once daily 5-day cycles,reduced the growth
same,free input virus detected in MLN8237-treated tumours,[6]; 2 hrs after ITu HSV1716,less of the free input virus detected
same,virus titre in MLN8237-treated compared to untreated control tumors,[6]; 48 hrs after ITu HSV1716,no apparent increase in virus titre
same,"uptake/infection rate of HSV1716 (intracellular genomes, Q-PCR normalised to GAPDH)",[7],significantly increases intracellular HSV1716 genomes; also recorded: significantly higher uptake/infection rate
same,GI50,[8],≥ 0.016 µM
same,cross-reactivity in broad screen of receptors and ion channels,[9],no significant cross-reactivity
same,oral availability and absorption,[10],orally available and rapidly absorbed
same,sections staining after incubation with X-gal (MLN8237-induced senescence),[11],1/18
